From patent US20120016011A1, “RNA Interference Mediated Inhibition of Connective Tissue Growth Factor (CTGF) Gene Expression Using Short Interfering Nucleic Acid (siNA)” (Merck Sharp & Dohme Corp., priority 2009, published 2012)
[invAb] = inverted abasic unit; m = 2'-O-methyl; r = 2'-OH (RNA); f = 2'-fluoro

Tested on: CTGF protein
Test: CTGF Western Blot in siNA-transfected NHLF cells (6-well plate)
Assay type: cell-based, human
Conditions: for Mean % KD (30 nM, 72 h) n = 5: CTGF protein; for Mean % KD (30 nM, 72 h) n = 5 / Density (CTGF)/Density (α-Tubulin) (3 pM, 72 hours) / Density (CTGF)/Density (α-Tubulin) (300 pM, 72 hours) / Density (CTGF)/Density (α-Tubulin) (30 nM, 72 hours): NHLF cells; for Density (CTGF)/Density (α-Tubulin) (3 pM, 72 hours) / Density (CTGF)/Density (α-Tubulin) (300 pM, 72 hours): n = 3, ratio ± S.D.; for Density (CTGF)/Density (α-Tubulin) (30 nM, 72 hours): n = 5, ratio ± S.D.; for % Protein Reduction at 30 nM (72 hrs): human NHLF cells, mean ± S.D.
Protocol: NHLF cells were plated in 6-well plates at final counts of 70,000 cells/well in 2 ml of complete growth media. Transfection was performed using 2.5 uL of RNAiMax per well. Final concentration of siNAs was 30 nM (screen) and 30, 0.3, and 0.003 nM (dose response study). Protein lysates were harvested 24, 48, and 72 hours post-transfection (screen) and 72 hours post-transfection (dose response study). Protein lysates were prepared using Cell Extraction Buffer (Invitrogen, cat# FNN0011) according to manufacturer's instructions. Protein concentration was measured using a Bradford Quick Start Kit (Bio-Rad, cat# 500-0205).
The protein source for the Western Blot experiments were from transfection of NHLF cells in a 6 well plate, as described above.
Protein samples were diluted 1:1 in 2× Laemmli buffer with 5% β-mercapto-ethanol and incubated at 95° C. for 5 minutes. 40-50 ug of protein was loaded in each lane of 10% Tris-HCl gel. One lane was designated for MagicMark Protein Standard (Invitrogen # LC5602). The gel was run at 100V for approximately 2 hours. Protein was transferred to a PVDF membrane at 100V for 60 minutes. Once the transfer was finished, the membrane was blocked in 1% Casein in PBS (BioRad Cat#161-0783) for 1 hour on a plate rocker at room temperature followed by the overnight incubation at 4° C. with goat […] anti-CTGF primary antibody (Santa Cruz Biotechnology, cat# L-20) diluted 1:200 in 1% Casein in PBS. On the next day, the blot was washed 4×5 minutes in PBST (0.1% Tween-20 in PBS) solution and incubated for 30 minutes at room temperature with rabbit anti-goat secondary antibody (Pierce Biotechnology, cat# 31402) diluted 1:1,000 in 1% Casein in PBS. Then, the blot was washed 4×5 minutes with PBST and incubated for 1 minute with ECL Western Blotting Substrate (Pierce Biotechnology, Cat# 32106). The bands were visualized on the Bio-Rad VersaDoc Imager.
The protein bands were quantified by computing their density which is defined by the ratio between the total intensity of all pixels and the area of the rectangle drawn around each band (intensity/mm^2). The density was calculated by the BioRad software.
The level of protein was quantified using the Bio-Rad VersaDoc Imager according to the protocols of that piece of equipment. A pixel count was performed in each lane using an area of identical size. Each sample was then compared to the appropriate control treated sample and converted to a percent of protein remaining compared to control.
The effects of lead siNAs on CTGF protein level were compared to the effects of the universal control using a two tail Student's T-test to obtain a P value. P<0.05 was considered significant.
The densities of CTGF bands were normalized to the respective densities of α-Tubulin by calculating the ratio of the density of CTGF band and the density of α-Tubulin band. The ratios of the treatments were then compared to the ratio of the control group using an unpaired t-test with unequal variances.

Substance	Mean % KD (30 nM, 72 h) n = 5 [%]	Density (CTGF)/Density (α-Tubulin) (3 pM, 72 hours)	Density (CTGF)/Density (α-Tubulin) (300 pM, 72 hours)	Density (CTGF)/Density (α-Tubulin) (30 nM, 72 hours)	% Protein Reduction at 30 nM (72 hrs) [%]
48046-DC: siNA duplex; sense SEQ ID NO: 57 B cAcAGcAccAGAAuGuAuA TTB; antisense SEQ ID NO: 58 UAUAcAuucuGGuGcuGuGUU (sense CACAGCACCAGAAUGUAUATT; antisense UAUACAUUCUGGUGCUGUGUU; sense: DNA at AGT, 2'-fluoro at CU, [invAb] at 5' end, 3' end, backbone not given here; antisense: sugars from the 5' end rrrmfmffffmmfmffmfmmm, backbone not given here)	82 ± 11	0.56 ± 0.3	0.13 ± 0.08	0.11 ± 0.10	82 ± 11
48042-DC: siNA duplex; sense SEQ ID NO: 49 B GAcAuuAAcucAuuAGAcu TTB; antisense SEQ ID NO: 50 AGUcuAAuGAGuuAAuGucUU (sense GACAUUAACUCAUUAGACUTT; antisense AGUCUAAUGAGUUAAUGUCUU; sense: DNA at AGT, 2'-fluoro at CU, [invAb] at 5' end, 3' end, backbone not given here; antisense: sugars from the 5' end rrrffmmfmmmffmmfmffmm, backbone not given here)	86 ± 13	0.45 ± 0.13	0.11 ± 0.06	0.09 ± 0.11	86 ± 13
48055-DC: siNA duplex; sense SEQ ID NO: 75 B cAAGuuAuuuAAAucuGuu TTB; antisense SEQ ID NO: 76 AACAGAuuuAAAuAAcuuGUU (sense CAAGUUAUUUAAAUCUGUUTT; antisense AACAGAUUUAAAUAACUUGUU; sense: DNA at AGT, 2'-fluoro at CU, [invAb] at 5' end, 3' end, backbone not given here; antisense: sugars from the 5' end rrrmmmfffmmmfmmfffmmm, backbone not given here)	84 ± 5	0.28 ± 0.04	0.10 ± 0.06	0.09 ± 0.04	84 ± 5
48047-DC: siNA duplex; sense SEQ ID NO: 59 B cGAGuAAuAuGccuGcuAu TTB; antisense SEQ ID NO: 60 AUAGcAGGcAuAuuAcucGUU (sense CGAGUAAUAUGCCUGCUAUTT; antisense AUAGCAGGCAUAUUACUCGUU; sense: DNA at AGT, 2'-fluoro at CU, [invAb] at 5' end, 3' end, backbone not given here; antisense: sugars from the 5' end rrrmfmmmfmfmffmfffmmm, backbone not given here)	58 ± 26	0.51 ± 0.4	0.17 ± 0.1	0.22 ± 0.13	58 ± 26
48048-DC: siNA duplex; sense SEQ ID NO: 61 B GAuAGcAucuuAuAcGAGu TTB; antisense SEQ ID NO: 62 ACUcGuAuAAGAuGcuAucUU (sense GAUAGCAUCUUAUACGAGUTT; antisense ACUCGUAUAAGAUGCUAUCUU; sense: DNA at AGT, 2'-fluoro at CU, [invAb] at 5' end, 3' end, backbone not given here; antisense: sugars from the 5' end rrrfmfmfmmmmfmffmffmm, backbone not given here)	83 ± 10	0.31 ± 0.2	0.09 ± 0.06	0.10 ± 0.10	83 ± 10
